pIC50: −log10 of the molar value. Activity calls are given as the source filed them. The calls are words filed in the database; no cut-off is given here.
Tests used:
[1] = test system: MOLM-13; test: Antiproliferative activity against human MOLM-13 cells incubated for 48 hrs by CCK-8 assay; format: functional, cell-based; settings: MOLM-13, 48 h
[2] = target: Mast/stem cell growth factor receptor Kit (Homo sapiens) (UniProt P10721); test: Inhibition of KIT (unknown origin) at 1000 nM relative to control
[3] = target: Mitogen-activated protein kinase kinase kinase kinase 1 (Homo sapiens) (UniProt Q92918); test: Inhibition of HPK1 (unknown origin) at 1000 nM relative to control
[4] = target: Maternal embryonic leucine zipper kinase (Homo sapiens) (UniProt Q14680); test: Inhibition of MELK (unknown origin) at 1000 nM relative to control
[5] = target: Serine/threonine-protein kinase Chk1 (Homo sapiens) (UniProt O14757); test: Inhibition of CHK1 (unknown origin) at 1000 nM relative to control
[6] = target: Serine/threonine-protein kinase TBK1 (Homo sapiens) (UniProt Q9UHD2); test: Inhibition of TBK1 (unknown origin) at 1000 nM relative to control
[7] = target: Serine/threonine-protein kinase MARK1 (Homo sapiens) (UniProt Q9P0L2); test: Inhibition of MARK1 (unknown origin) at 1000 nM relative to control
[8] = target: Mitogen-activated protein kinase 1 (Homo sapiens) (UniProt P28482); test: Inhibition of MAPK2 (unknown origin) at 1000 nM relative to control
[9] = target: Receptor tyrosine-protein kinase erbB-2 (Homo sapiens) (UniProt P04626); test: Inhibition of HER2 (unknown origin) at 1000 nM relative to control
[10] = target: Mitogen-activated protein kinase 1 (Homo sapiens) (UniProt P28482); test: Inhibition of ERK2 (unknown origin) at 1000 nM relative to control
[11] = target: Mitogen-activated protein kinase 3 (Homo sapiens) (UniProt P27361); test: Inhibition of ERK1 (unknown origin) at 1000 nM relative to control
[12] = target: Glycogen synthase kinase-3 alpha (Homo sapiens) (UniProt P49840); test: Inhibition of GSK3alpha (unknown origin) at 1000 nM relative to control
[13] = target: Hepatocyte growth factor receptor (Homo sapiens) (UniProt P08581); test: Inhibition of C-MET (unknown origin) at 1000 nM relative to control
[14] = target: Casein kinase I isoform alpha-like (Homo sapiens) (UniProt Q8N752); test: Inhibition of CK1A1 (unknown origin) at 1000 nM relative to control
[15] = test system: MOLM-13; test: Induction of apoptosis in human MOLM-13 cells assessed as downregulation of Bcl-2 level at 15 nM measured upto 12 hrs by Western blot analysis; format: functional, cell-based; settings: time hrs <=12
[16] = test system: MV4-11; test: Induction of apoptosis in human MV4-11 cells assessed as downregulation of Bcl-2 level at 15 nM measured upto 12 hrs by Western blot analysis; format: functional, cell-based; settings: time hrs <=12
[17] = test system: MOLM-13; test: Induction of apoptosis in human MOLM-13 cells assessed as upregulation of cleaved caspase-3 level at 15 nM by Western blot analysis; format: functional, cell-based; settings: time 0-12 hrs, TDE = time-dependent effect
[18] = target: Mast/stem cell growth factor receptor Kit (Homo sapiens) (UniProt P10721); test: Induction of KIT degradation in human MV4-11 cells at 0 to 25 nM after 24 hrs by Western blot analysis; format: cell-based; settings: dose 0-25 nM
[19] = target: Receptor-type tyrosine-protein kinase FLT3 (Homo sapiens) (UniProt P36888); test: Inhibition of FLT3 in human MOLM-13 cells assessed as reduction in FLT3 phosphorylation at 15 nM by Western blot analysis; format: cell-based; settings: time 0-12 hrs, TDE = time-dependent effect
[20] = target: Receptor-type tyrosine-protein kinase FLT3 (Homo sapiens) (UniProt P36888); test: Inhibition of FLT3 in human MV4-11 cells assessed as reduction in FLT3 phosphorylation at 15 nM by Western blot analysis; format: cell-based; settings: time 0-12 hrs, TDE = time-dependent effect
[21] = target: Receptor-type tyrosine-protein kinase FLT3 (Homo sapiens) (UniProt P36888); test: Inhibition of FLT3 in human MV4-11 cells assessed as reduction in STAT5 phosphorylation at 15 nM by Western blot analysis; format: cell-based; settings: time 0-12 hrs, TDE = time-dependent effect
[22] = target: Receptor-type tyrosine-protein kinase FLT3 (Homo sapiens) (UniProt P36888); test: Inhibition of FLT3 in human MOLM-13 cells assessed as reduction in ERK phosphorylation at 15 nM by Western blot analysis; format: cell-based; settings: time 0-12 hrs, TDE = time-dependent effect
[23] = target: Receptor-type tyrosine-protein kinase FLT3 (Homo sapiens) (UniProt P36888); test: Inhibition of FLT3 in human MV4-11 cells assessed as reduction in ERK phosphorylation at 15 nM by Western blot analysis; format: cell-based; settings: time 0-12 hrs, TDE = time-dependent effect
[24] = target: Mast/stem cell growth factor receptor Kit (Homo sapiens) (UniProt P10721); test: Inhibition of KIT in human MOLM-13 cells assessed as reduction in STAT3 phosphorylation at 5 to 25 nM after 24 hrs by Western blot analysis; format: cell-based; settings: dose 5-25 nM
[25] = target: Mast/stem cell growth factor receptor Kit (Homo sapiens) (UniProt P10721); test: Inhibition of KIT in human MOLM-13 cells assessed as reduction in PI3K phosphorylation at 5 to 25 nM after 24 hrs by Western blot analysis; format: cell-based; settings: dose 5-25 nM
[26] = test system: Receptor-type tyrosine-protein kinase FLT3 (Homo sapiens), P36888 [UNDEFINED MUTATION]; test: Induction of FLT3-ITD degradation in human MV4-11 cells at 20 nM pretreated with pomalidomide for 2 hrs followed compound addition for 6 hrs by Western blot analysis; format: cell-based
[27] = Toxicity in NOD/SCID mouse xenografted with human MV4-11 cells assessed as effect on body weight at 3 mg/kg/day, iv administered for 12 hrs; format: organism-based; settings: in vivo
[28] = target: Receptor-type tyrosine-protein kinase FLT3 (Homo sapiens) (UniProt P36888); settings: dose 1000.0 nM
Description: Inhibition of FLT3 (unknown origin) at 1000 nM relative to control

[29] = test system: Receptor-type tyrosine-protein kinase FLT3 (Homo sapiens), P36888 [D835Y]; settings: dose 1000.0 nM
Description: Inhibition of FLT3 D835Y mutant (unknown origin) at 1000 nM relative to control

[30] = target: Platelet-derived growth factor receptor alpha (Homo sapiens) (UniProt P16234); settings: dose 1000.0 nM
Description: Inhibition of PDGFRalpha (unknown origin) at 1000 nM relative to control

[31] = target: Vascular endothelial growth factor receptor 2 (Homo sapiens) (UniProt P35968); settings: dose 1000.0 nM
Description: Inhibition of KDR (unknown origin) at 1000 nM relative to control

[32] = target: Fibroblast growth factor receptor 1 (Homo sapiens) (UniProt P11362); settings: dose 1000.0 nM
Description: Inhibition of FGFR1 (unknown origin) at 1000 nM relative to control

[33] = target: Tyrosine-protein kinase Lck (Homo sapiens) (UniProt P06239); settings: dose 1000.0 nM
Description: Inhibition of LCK (unknown origin) at 1000 nM relative to control

[34] = target: Tyrosine-protein kinase receptor UFO (Homo sapiens) (UniProt P30530); settings: dose 1000.0 nM
Description: Inhibition of AXL (unknown origin) at 1000 nM relative to control

[35] = target: Tyrosine-protein kinase ABL1 (Homo sapiens) (UniProt P00519); settings: dose 1000.0 nM
Description: Inhibition of ABL (unknown origin) at 1000 nM relative to control

[36] = target: Homeodomain-interacting protein kinase 1 (Homo sapiens) (UniProt Q86Z02); settings: dose 1000.0 nM
Description: Inhibition of HIPK1 (unknown origin) at 1000 nM relative to control

[37] = target: Receptor tyrosine-protein kinase erbB-4 (Homo sapiens) (UniProt Q15303); settings: dose 1000.0 nM
Description: Inhibition of HER4 (unknown origin) at 1000 nM relative to control

[38] = target: Mitogen-activated protein kinase 14 (Homo sapiens) (UniProt Q16539); settings: dose 1000.0 nM
Sequence of Mitogen-activated protein kinase 14 (Homo sapiens) (Q16539 whole entry): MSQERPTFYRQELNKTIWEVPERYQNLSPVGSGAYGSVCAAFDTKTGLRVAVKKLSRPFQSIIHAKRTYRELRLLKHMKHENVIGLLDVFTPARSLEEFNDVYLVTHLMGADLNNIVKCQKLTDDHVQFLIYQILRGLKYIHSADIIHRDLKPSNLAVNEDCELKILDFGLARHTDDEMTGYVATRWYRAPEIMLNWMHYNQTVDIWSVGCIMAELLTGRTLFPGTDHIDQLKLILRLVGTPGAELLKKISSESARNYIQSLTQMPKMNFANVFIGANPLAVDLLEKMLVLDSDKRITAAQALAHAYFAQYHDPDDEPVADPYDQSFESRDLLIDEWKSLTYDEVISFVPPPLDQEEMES
Description: Inhibition of p38alpha (unknown origin) at 1000 nM relative to control

Sequence of Mast/stem cell growth factor receptor Kit (Homo sapiens) (P10721 whole entry): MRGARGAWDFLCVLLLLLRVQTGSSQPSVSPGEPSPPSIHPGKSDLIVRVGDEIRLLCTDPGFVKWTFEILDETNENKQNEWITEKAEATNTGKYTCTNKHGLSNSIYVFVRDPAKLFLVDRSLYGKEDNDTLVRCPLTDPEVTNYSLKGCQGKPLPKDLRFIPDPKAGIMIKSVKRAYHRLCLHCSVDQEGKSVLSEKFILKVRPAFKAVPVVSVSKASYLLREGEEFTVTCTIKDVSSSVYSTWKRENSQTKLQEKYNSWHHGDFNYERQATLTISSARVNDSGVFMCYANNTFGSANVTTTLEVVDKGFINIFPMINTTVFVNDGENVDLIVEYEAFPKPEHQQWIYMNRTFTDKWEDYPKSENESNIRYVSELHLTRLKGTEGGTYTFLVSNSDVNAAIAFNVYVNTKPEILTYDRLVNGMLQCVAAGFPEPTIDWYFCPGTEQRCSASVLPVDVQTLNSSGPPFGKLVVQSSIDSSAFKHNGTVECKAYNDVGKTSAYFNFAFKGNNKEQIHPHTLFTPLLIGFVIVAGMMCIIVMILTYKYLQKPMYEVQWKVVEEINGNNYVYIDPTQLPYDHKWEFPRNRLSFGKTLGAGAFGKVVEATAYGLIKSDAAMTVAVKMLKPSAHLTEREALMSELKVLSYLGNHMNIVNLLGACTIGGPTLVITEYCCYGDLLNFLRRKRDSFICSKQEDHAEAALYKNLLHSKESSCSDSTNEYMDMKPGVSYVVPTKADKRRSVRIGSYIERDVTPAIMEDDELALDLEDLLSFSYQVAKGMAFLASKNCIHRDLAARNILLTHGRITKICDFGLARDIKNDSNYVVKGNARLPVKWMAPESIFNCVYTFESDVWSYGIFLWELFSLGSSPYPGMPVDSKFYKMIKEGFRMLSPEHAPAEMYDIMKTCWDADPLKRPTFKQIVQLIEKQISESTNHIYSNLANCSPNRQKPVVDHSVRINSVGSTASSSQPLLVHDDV
Sequence of Mitogen-activated protein kinase 1 (Homo sapiens) (P28482 whole entry): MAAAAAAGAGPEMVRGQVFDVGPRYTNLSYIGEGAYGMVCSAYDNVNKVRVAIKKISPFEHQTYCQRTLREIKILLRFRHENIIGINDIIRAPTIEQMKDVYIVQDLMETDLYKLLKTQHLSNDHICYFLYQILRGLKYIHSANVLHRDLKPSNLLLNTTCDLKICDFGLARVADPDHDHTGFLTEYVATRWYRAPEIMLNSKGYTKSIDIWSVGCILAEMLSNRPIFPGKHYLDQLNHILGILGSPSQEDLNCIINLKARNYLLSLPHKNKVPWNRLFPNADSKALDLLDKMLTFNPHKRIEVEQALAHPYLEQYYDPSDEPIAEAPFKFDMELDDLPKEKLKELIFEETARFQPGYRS
Sequence of Casein kinase I isoform alpha-like (Homo sapiens) (Q8N752 whole entry, canonical isoform): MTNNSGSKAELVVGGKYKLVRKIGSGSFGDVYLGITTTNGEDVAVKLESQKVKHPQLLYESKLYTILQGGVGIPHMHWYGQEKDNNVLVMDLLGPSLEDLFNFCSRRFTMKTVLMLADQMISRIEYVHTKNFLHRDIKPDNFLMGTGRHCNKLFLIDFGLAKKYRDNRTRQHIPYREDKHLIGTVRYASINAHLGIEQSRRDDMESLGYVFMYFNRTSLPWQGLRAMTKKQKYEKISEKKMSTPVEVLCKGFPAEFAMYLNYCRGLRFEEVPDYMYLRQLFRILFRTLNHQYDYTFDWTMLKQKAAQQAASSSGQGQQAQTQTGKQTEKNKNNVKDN
Sequence of Receptor tyrosine-protein kinase erbB-2 (Homo sapiens) (P04626 whole entry): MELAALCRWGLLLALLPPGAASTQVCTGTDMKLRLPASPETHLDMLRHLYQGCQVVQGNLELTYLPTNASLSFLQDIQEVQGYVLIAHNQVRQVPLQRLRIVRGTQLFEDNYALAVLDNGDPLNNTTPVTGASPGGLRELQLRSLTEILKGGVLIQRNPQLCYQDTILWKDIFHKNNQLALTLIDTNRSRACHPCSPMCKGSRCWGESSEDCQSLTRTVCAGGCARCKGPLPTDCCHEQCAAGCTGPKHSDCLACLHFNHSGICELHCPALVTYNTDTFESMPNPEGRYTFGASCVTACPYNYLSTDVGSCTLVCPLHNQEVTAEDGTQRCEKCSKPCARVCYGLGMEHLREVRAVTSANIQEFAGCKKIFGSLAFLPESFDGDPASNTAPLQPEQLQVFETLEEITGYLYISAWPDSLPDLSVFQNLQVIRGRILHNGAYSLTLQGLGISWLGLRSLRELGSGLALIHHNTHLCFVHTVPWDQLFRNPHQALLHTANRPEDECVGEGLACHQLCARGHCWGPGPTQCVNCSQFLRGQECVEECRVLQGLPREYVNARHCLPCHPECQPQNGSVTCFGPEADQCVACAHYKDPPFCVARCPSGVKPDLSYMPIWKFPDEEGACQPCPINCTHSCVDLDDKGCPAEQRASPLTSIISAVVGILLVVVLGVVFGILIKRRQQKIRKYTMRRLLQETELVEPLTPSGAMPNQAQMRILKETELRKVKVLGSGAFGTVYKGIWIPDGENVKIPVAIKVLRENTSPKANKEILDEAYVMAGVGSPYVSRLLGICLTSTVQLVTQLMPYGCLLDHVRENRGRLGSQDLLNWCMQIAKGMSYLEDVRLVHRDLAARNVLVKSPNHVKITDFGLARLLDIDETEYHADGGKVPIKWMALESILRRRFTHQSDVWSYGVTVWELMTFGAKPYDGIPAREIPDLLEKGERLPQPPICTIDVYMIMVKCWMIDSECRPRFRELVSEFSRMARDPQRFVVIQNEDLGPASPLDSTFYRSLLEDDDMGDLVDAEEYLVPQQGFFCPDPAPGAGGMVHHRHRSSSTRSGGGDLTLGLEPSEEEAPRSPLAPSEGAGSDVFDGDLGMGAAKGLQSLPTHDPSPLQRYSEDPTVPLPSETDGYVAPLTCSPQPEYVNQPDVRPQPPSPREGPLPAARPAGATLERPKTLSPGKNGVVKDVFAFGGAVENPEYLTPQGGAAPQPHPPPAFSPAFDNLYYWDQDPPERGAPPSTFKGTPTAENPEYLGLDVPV
Sequence of Homeodomain-interacting protein kinase 1 (Homo sapiens) (Q86Z02 whole entry, looked up): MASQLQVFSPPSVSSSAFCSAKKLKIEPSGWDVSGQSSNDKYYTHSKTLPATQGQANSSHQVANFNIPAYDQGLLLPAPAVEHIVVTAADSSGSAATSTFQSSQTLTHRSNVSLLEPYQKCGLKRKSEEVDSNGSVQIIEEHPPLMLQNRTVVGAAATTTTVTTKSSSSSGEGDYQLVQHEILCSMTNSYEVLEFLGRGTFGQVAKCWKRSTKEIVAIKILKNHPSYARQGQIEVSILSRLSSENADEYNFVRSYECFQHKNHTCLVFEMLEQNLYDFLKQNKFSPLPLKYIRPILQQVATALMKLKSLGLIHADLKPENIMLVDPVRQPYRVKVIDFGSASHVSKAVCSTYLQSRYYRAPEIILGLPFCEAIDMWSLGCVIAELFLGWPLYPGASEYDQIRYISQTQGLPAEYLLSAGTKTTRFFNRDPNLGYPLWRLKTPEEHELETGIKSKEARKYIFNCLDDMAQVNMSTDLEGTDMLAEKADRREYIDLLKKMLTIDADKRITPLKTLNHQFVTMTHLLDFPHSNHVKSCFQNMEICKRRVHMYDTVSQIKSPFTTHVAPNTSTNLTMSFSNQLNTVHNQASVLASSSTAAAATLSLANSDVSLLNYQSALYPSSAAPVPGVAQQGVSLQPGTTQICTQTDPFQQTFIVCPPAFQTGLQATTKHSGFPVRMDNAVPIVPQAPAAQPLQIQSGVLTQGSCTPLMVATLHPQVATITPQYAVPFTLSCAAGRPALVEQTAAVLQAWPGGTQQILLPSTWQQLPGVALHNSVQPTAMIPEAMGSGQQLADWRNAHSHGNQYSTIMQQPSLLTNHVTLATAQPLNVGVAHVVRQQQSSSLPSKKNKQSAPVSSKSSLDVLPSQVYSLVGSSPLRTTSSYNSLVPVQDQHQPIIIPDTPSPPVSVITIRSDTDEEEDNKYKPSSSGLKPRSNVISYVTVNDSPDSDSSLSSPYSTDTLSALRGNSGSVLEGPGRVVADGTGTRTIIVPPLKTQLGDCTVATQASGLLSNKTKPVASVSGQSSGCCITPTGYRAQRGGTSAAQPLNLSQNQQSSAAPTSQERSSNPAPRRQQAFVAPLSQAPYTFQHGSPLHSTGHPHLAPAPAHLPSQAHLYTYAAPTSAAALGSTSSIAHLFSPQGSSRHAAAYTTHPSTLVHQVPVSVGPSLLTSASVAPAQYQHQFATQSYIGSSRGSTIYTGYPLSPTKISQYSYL
Sequence of Tyrosine-protein kinase Lck (Homo sapiens) (P06239 2-509 limits assumed): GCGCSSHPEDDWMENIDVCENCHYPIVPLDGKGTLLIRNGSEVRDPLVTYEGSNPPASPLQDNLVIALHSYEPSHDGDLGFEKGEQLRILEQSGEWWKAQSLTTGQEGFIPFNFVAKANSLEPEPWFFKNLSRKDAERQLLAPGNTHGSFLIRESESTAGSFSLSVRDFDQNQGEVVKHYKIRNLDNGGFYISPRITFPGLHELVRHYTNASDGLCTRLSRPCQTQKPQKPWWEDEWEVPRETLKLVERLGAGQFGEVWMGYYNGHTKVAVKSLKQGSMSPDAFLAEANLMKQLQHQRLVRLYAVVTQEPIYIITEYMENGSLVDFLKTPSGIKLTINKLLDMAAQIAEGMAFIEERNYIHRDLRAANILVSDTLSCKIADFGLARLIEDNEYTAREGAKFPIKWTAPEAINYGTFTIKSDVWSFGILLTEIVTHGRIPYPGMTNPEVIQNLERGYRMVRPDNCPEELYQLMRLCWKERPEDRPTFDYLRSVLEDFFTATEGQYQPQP

In the case of Nc1c(-c2nc3cc(N4CCN(C(=O)CCCCCNc5cccc6c5C(=O)N(C5CCC(=O)NC5=O)C6=O)CC4)ccc3[nH]2)c(=O)[nH]c2cccc(F)c12 (stereo not drawn), the pIC50 [1] was 8.02, the inhibition [2] was 83% and the inhibition [3] was 49%. For the same compound, the inhibition [4] was 11%, the inhibition [5] was 26% and the inhibition [6] was 22%. For the same compound, the inhibition [7] was 17%, the inhibition [8] was 54% and the inhibition [9] was 50%. The inhibition [10] was 38%, the inhibition [11] was 4% and the inhibition [12] was 3%. The inhibition [13] was 15%, the inhibition [14] was 1% and the Activity [15] was “Active”. The Activity [16] was “Active”, the Activity [17] was “Tde” and the Activity [18] was “Active”. The inhibition [19] was “Tde”, the inhibition [20] was “Tde” and the inhibition [21] was “Tde”. For the same compound, the inhibition [22] was “Tde”, the inhibition [23] was “Tde” and the inhibition [24] was “Active”. The inhibition [25] was “Active”, the Activity [26] was “inactive” and the Activity [27] was “Non-Toxic”. For the same compound, the inhibition [28] was 93%, the inhibition [29] was 95% and the inhibition [30] was 82%. The inhibition [31] was 69%, the inhibition [32] was 17% and the inhibition [33] was 16%. The inhibition [34] was 20%, the inhibition [35] was 7% and the inhibition [36] was 5%. For the same compound, the inhibition [37] was 14% and the inhibition [38] was 12%.

Reference: ChEMBL document CHEMBL4840352 (J Med Chem, 2021)
